Source: US7351737B2, “4-[(8-substituted)-6-chromanoyl]-and 4-[8-substituted)-chroman-6-YL-ethynyl]-benzoic and phenylacetic acids, their esters and salts having cytochrome P450RAI inhibitory activity” (Allergan, Inc., priority 2002, dated 2008)

Assays:
skin of fuzzy rats = test: Topical skin irritation test; assay type: in vivo, female fuzzy rats (Hsd:FUZZY-fz); conditions: topical in acetone, daily Day 1-14, group average of grade 0-4
From the text: The topical retinoid all-trans-retinoic acid (ATRA) and oral retinoids such as 13-cis RA and etretinate are known to induce substantial skin irritation in humans. This irritation is a direct result of activation of the RAR nuclear receptors. Analysis of retinoid topical irritation is also a highly reproducable method of determining in vivo retinoid potency. The female fuzzy rats provide a convenient animal model of topical irritation, since retinoid-induced skin flaking and abrasion can be readily scored by eye, while their larger size than those of mice also allows multiple sampling of serum for clinical analyses. Topical application of P450RAI inhibitors should cause an increase in the endogenous levels of ATRA that would result in ATRA-induced irritation in skin of hairless mice. In these tests female fuzzy rats ((Hsd:FUZZY-fz), 6-7 weeks old, were obtained from Harlan Sprague-Dawley (Indianapolis, Ind.). The animals were about 8-9 weeks old at the start of the experiments. Food (Purina Rodent Chow 5001) and water purified by reverse osmosis were provided ad libitum. The rats were housed individually throughout the dosing period. Test chemicals were dissolved in acetone (vehicle) for application to the backs of the rats. Two days prior to actual administration of the test compounds, rats were handled daily and dosed with vehicle at a volume of 0.5 ml/kg. Starting on Day 1 thought Day 14 (dosing period), animals were dosed with the vehicle or compound(s) according to their group assignment. The rats in the tests were observed daily and the dorsal skin was graded for the degree of erythema/eschar and overall appearance. The scoring was in accordance with Table 2, below. [table] Daily group average was calculated by dividing the sum of the individual grade by the number of animals in each treatment group. The attached data in Table 3 indicates the retinoid-mimetic effects of some P450RAI inhibitors on the skin of fuzzy rats in the above described tests and in accordance with the above-indicated scoring.

RARγ = target: T1, RARγ (Homo sapiens, UniProt P13631); test: chimeric receptor transactivation assay, RARγ; assay type: cell-based; conditions: for RAR γ (EFFICACY): value in brackets
T1 sequence (P13631 185-419 limits assumed): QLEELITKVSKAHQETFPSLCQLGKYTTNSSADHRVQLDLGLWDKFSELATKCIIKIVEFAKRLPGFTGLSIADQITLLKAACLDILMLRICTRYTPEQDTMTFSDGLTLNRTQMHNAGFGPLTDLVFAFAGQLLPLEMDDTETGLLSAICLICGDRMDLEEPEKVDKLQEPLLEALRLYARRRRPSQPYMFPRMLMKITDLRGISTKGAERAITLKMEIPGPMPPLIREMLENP
From the text: (§1) Assays described below measure the ability of a compound to bind to, and/or activate various retinoid receptor subtypes. When in these assays a compound binds to a given receptor subtype and activates the transcription of a reporter gene through that subtype, then the compound is considered an agonist of that receptor subtype. […] In the below described assays the ability of the compounds to bind to RARα, RARβ, RARγ, RXRα, RXRβ and RXRγ receptors, and the ability or inability of the compounds to activate transcription of a reporter gene through these receptor subtypes can be tested.
(§2) As far as specific assays are concerned, a chimeric receptor transactivation assay which tests for agonist-like activity in the RARα, RARβ, and RARγ, receptor subtypes, and which is based on work published by Feigner P. L. and Holm M. (1989) Focus, 112 is described in detail in U.S. Pat. No. 5,455,265. The specification of U.S. Pat. No. 5,455,265 is hereby expressly incorporated by reference. The numeric results obtained with several preferred compounds of this invention in this assay are shown below in Table 1.
A holoreceptor transactivation assay and a ligand binding assay which measure the antagonist/agonist like activity of the compounds of the invention, or their ability to bind to the several retinoid receptor subtypes, respectively, are described in published PCT Application No. WO WO93/11755 (particularly on pages 30-33 and 37-41) published on Jun. 24, 1993, the specification of which is also incorporated herein by reference. A detailed experimental procedure for holoreceptor transactivations has been described by Heyman et al. Cell 68, 397-406, (1992); Allegretto et al. J. Biol. Chem. 268, 26625-26633, and Mangelsdorf et al. The Retinoids: Biology, Chemistry and Medicine, pp 319-349, Raven Press Ltd., New York, which are expressly incorporated herein by reference. The results obtained in this assay are expressed in EC50 numbers, as they are also in the chimeric receptor transactivation assay. The results of ligand binding assay are expressed in Kd numbers. (See Cheng et al. Biochemical Pharmacology Vol. 22 pp 3099-3108, expressly incorporated herein by reference.)

RARβ = target: T2, RARβ (Homo sapiens, UniProt P10826); test: chimeric receptor transactivation assay, RARβ; assay type: cell-based; conditions: first item of cell EC50/(EFFICACY)/Kd, read-out: RAR β EC50
T2 sequence (P10826 183-417 limits assumed): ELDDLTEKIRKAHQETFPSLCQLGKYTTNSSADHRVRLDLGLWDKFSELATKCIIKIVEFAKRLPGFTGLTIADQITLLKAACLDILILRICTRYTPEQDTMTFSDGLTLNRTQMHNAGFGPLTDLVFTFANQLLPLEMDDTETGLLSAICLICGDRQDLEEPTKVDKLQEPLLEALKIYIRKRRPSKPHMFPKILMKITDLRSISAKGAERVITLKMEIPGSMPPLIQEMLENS
From the text: as §1
as §2, with “1. […]” for “1.”

| RAR γ (EFFICACY) (RARγ) | SMILES | Irritation Score on day 14 (skin of fuzzy rats; 1% compound + 0.1% retinol) | Irritation Score on day 14 (skin of fuzzy rats; 1% compound alone) | also measured |
| --- | --- | --- | --- | --- |
|  | C#Cc1cc(C(=O)Oc2ccc(CC(=O)O)cc2)cc2c1OC(C)(C)CC2(C)C [Compound 1, 8-Ethynyl-2,2,4,4-tetramethyl-chroman-6-carboxylic acid 4-carboxymethyl-phenyl ester] |  |  | Irritation Score on day 14 (skin of fuzzy rats; 3% compound + 0.1% retinol): 1; Irritation Score on day 14 (skin of fuzzy rats; 3% compound alone): 2.6 |
|  | C#Cc1cc(C(=O)Oc2ccc(CC(=O)OCC)cc2)cc2c1OC(C)(C)CC2(C)C [Compound 2, 8-Ethynyl-2,2,4,4-tetramethyl-chroman-6-carboxylic acid 4-ethoxycarbonylmethyl-phenyl ester] | 1.6 | 0 |  |
|  | C#Cc1cc(C(=O)Oc2ccc(CC(=O)OCOC(C)=O)cc2)cc2c1OC(C)(C)CC2(C)C [Compound 3, 8-Ethynyl-2,2,4,4-tetramethyl-chroman-6-carboxylic acid 4-acetoxymethoxycarbonylmethyl-phenyl ester] | 2.4 | 0 |  |
| 20 | C#Cc1cc(C(=O)Oc2ccc(CC(=O)O)c(F)c2)cc2c1OC(C)(C)CC2(C)C [Compound 4, 8-Ethynyl-2,2,4,4-tetramethyl-chroman-6-carboxylic acid-4-carboxymethyl-3-fluoro-phenyl ester] | 3.4 | 1.4 | EC50 (RARβ): 263 nM |
|  | C#Cc1cc(C(=O)Oc2ccc(CC(=O)OCOC(C)=O)c(F)c2)cc2c1OC(C)(C)CC2(C)C [Compound 5, 8-Ethynyl-2,2,4,4-tetramethyl-chroman-6-carboxylic acid 4-acetoxymethoxycarbonylmethyl-3-fluoro-phenyl ester] |  |  | Irritation Score on day 14 (skin of fuzzy rats; 0.1% compound + 0.1% retinol): 2.2; Irritation Score on day 14 (skin of fuzzy rats; 0.1% compound alone): 0.4 |
| 30 | C#Cc1cc(C#Cc2ccc(CC(=O)O)cc2)cc2c1OC(C)(C)CC2(C)C [Compound 40, [4-(8-Ethynyl-2,2,4,4-tetramethyl-chroman-6-ylethynyl)-phenyl]-acetic acid] |  |  | EC50 (RARγ; first item of cell EC50/(EFFICACY)/Kd, read-out: RAR γ EC50): 149 nM; EC50 (RARβ): 101 nM |
| 20 | C#Cc1cc(C#Cc2ccc(CC(=O)O)c(F)c2)cc2c1OC(C)(C)CC2(C)C [Compound 41, [4-(8-Ethynyl-2,2,4,4-tetramethyl-chroman-6-ylethynyl)-2-fluoro-phenyl]-acetic acid] |  |  |  |
